The numbers were not newly measured in patent publication US9795640B2, “Controlling appetite, promoting weight loss, reducing body fat, and/or improving glucose tolerance” (VANDERBILT UNIVERSITY, priority 2011, dated 2017), which cites them from elsewhere.

The conditions of this data set: intraperitoneal administration; for obesity: animals fed a high-fat diet.

Regarding `CCCCCCCC/C=C\CCCCCCCC(=O)NCCO` [OEA, N-oleoyl-ethanolamide], the food intake result is listed as “markedly reduces” and the obesity result is listed as “markedly reduces”.
On to `CCCCCCCCCCCCCCCCCC(=O)NCCO` [SEA, N-stearoyl-ethanolamide], for which the food intake entry is on record as “markedly reduces” and the obesity entry was “markedly reduces”.
